Assay results from US11524966B1 (Valo Early Discovery, Inc., priority 2017, dated 2022).

Each molecule was assayed against T1, USP28 (His-tagged USP28-FL-mammalian) (Homo sapiens, UniProt Q96RU2) (assay: Ubiquitin-Rhodamine 110 Assay for USP28 Activity, Example A-1(a)). Details: Ubiquitin-Rhodamine 110 assay, format Example A-1(a); read-out: USP28 A-1(a) IC50 range.
T1 construct: Expression of USP28 (1-1077)-TEV-6*His (pTT5 vector); made in house; host or cells: Expi293f cells (pTT5 vector)
T1 sequence (Q96RU2 1-1077): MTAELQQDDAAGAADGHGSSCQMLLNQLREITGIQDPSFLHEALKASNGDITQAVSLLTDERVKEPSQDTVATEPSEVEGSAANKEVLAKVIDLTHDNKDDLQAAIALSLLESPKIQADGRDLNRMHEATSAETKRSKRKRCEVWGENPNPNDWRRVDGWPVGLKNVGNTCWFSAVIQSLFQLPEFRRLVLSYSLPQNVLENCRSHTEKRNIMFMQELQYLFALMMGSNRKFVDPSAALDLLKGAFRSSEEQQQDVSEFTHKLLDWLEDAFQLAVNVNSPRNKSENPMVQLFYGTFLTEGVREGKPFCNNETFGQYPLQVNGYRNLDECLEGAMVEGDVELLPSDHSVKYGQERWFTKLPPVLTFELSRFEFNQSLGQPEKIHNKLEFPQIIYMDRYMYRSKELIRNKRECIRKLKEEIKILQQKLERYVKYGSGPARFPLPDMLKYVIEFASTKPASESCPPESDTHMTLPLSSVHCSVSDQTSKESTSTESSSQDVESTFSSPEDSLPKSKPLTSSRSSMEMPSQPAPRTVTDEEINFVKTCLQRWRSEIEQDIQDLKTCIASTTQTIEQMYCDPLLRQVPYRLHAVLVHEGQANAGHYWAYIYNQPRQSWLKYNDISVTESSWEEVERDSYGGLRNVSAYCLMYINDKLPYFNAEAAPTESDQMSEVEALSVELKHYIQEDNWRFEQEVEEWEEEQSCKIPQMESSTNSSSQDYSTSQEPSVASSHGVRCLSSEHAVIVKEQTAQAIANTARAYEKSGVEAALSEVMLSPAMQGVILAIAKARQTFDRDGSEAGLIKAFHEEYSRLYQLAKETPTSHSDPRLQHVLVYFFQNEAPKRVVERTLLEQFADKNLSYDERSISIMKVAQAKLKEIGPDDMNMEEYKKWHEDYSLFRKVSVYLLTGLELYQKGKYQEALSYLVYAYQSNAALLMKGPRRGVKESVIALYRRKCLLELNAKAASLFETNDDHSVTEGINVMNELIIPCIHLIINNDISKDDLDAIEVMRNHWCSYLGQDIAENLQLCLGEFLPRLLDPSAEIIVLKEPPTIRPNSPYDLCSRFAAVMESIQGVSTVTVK
Assay type: biochemical
Outline: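 Full-length His-tagged USP28 (1-1077, Expi293F-expressed; […]) was preincubated 30 min with compound (25 μM–1.3 nM, 10-point 3-fold) in 20 mM Tris-HCl pH 8.0, 3 mM BME, 0.03% BGG, 0.01% Triton X-100. Ub-Rh110 (25 nM) was then added for 45 min at room temperature, stopped with citric acid, and read by fluorescence (485/535 nm).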
With Cc1ccc2c(N)c(C(=O)N[C@@H]3COc4c(ccc(N5CCNCC5)c4Cl)C3)sc2n1 [Example 13-8, (S)-3-amino-N-(8-chloro-7-(piperazin-1-yl)chroman-3-yl)-6-methylthieno[2,3-b]pyridine-2-carboxamide] the IC50 was 200 to 2000 nM. In the case of Cc1ccc2c(N)c(C(=O)N[C@H]3COc4c(ccc(N5CCNCC5)c4Cl)C3)sc2n1 [Example 13_7, (R)-3-amino-N-(8-chloro-7-(piperazin-1-yl)chroman-3-yl)-6-methylthieno[2,3-b]pyridine-2-carboxamide], the IC50 is reported as 1 to 50 nM. Cc1ccc2c(N)c(C(=O)N[C@H]3COc4cc(N5CCNCC5)ncc4C3)sc2n1 [Example 16, (R)-3-Amino-6-methyl-N-(7-(piperazin-1-yl)-3,4-dihydro-2H-pyrano[3,2-c]pyridin-3-yl)thieno[2,3-b]pyridine-2-carboxamide] gave an IC50 of 1 to 50 nM. Molecule Cc1ccc2c(N)c(C(=O)N[C@H]3COc4cc(N5CC6CCC(C5)N6)nc(F)c4C3)sc2n1 [Example 17, N-((3R)-7-(3,8-Diazabicyclo[3.2.1]octan-3-yl)-5-fluoro-3,4-dihydro-2H-pyrano[3,2-c]pyridin-3-yl)-3-amino-6-methylthieno[2,3-b]pyridine-2-carboxamide] has an IC50 of 1 to 50 nM. Molecule Cc1ccc2c(N)c(C(=O)N[C@H]3COc4c(cnc(N5CC6CCC(C5)N6)c4F)C3)sc2n1 [Example 18, N-((3R)-7-(3,8-Diazabicyclo[3.2.1]octan-3-yl)-8-fluoro-3,4-dihydro-2H-pyrano[3,2-c]pyridin-3-yl)-3-amino-6-methylthieno[2,3-b]pyridine-2-carboxamide] has an IC50 of 1 to 50 nM. In the case of Cc1ccc2c(N)c(C(=O)N[C@H]3COc4nc(N5CCNCC5)ccc4C3)sc2n1 [Example 19, (R)-3-Amino-6-methyl-N-(7-(piperazin-1-yl)-3,4-dihydro-2H-pyrano[2,3-b]pyridin-3-yl)thieno[2,3-b]pyridine-2-carboxamide], the IC50 is reported as 50 to 200 nM. In the case of Cc1ccc2c(N)c(C(=O)N[C@H]3COc4nc(N5CCNCC5)c(F)cc4C3)sc2n1 [Example 20, (R)-3-Amino-N-(6-fluoro-7-(piperazin-1-yl)-3,4-dihydro-2H-pyrano[2,3-b]pyridin-3-yl)-6-methylthieno[2,3-b]pyridine-2-carboxamide], the IC50 is reported as 50 to 200 nM. Work on CO[C@H]1CN(c2ccc3c(n2)CC[C@H](NC(=O)c2sc4nc(C)cc(C)c4c2N)C3)C[C@@H]1N [Example 23-3, 3-amino-N-[(6S)-2-[(3S,4S)-3-amino-4-methoxypyrrolidin-1-yl]-5,6,7,8-tetrahydroquinolin-6-yl]-4,6-dimethylthieno[2,3-b]pyridine-2-carboxamide] yielded an IC50 of 50 to 200 nM. With CO[C@H]1CN(c2ccc3c(n2)CC[C@H](NC(=O)c2sc4nc(C)ccc4c2N)C3)C[C@@H]1N [Example 23-4, 3-amino-N-[(6S)-2-[(3S,4S)-3-amino-4-methoxypyrrolidin-1-yl]-5,6,7,8-tetrahydroquinolin-6-yl]-6-methylthieno[2,3-b]pyridine-2-carboxamide] the IC50 was 50 to 200 nM. CO[C@H]1CN(c2ccc3c(n2)CC[C@@H](NC(=O)c2sc4nc(C)ccc4c2N)C3)C[C@@H]1N [Example 23-5, 3-amino-N-[(6R)-2-[(3S,4S)-3-amino-4-methoxypyrrolidin-1-yl]-5,6,7,8-tetrahydroquinolin-6-yl]-6-methylthieno[2,3-b]pyridine-2-carboxamide] showed an IC50 of 200 to 2000 nM.
